Test results: patent publication US20110008258A1, “METHODS RELATING TO BREATHING DISORDERS” (SAMSARA MEDICIN AB, priority 2007, published 2011)

Tests used:
[1] = system: IL-1β-induced respiratory depression; conditions: cited from earlier work
[2] = system: EP3R^+/+ mice; experiment: Flow plethysmography after icv PGE2, EP3R+/+ mice; assay type: in vivo
Experimental: (§1) A Plexiglas chamber (35 ml) was connected to a highly sensitive direct airflow sensor (0-200 ml/min; TRN3100, Kent Scientific Corporation, Litchfield, Conn., USA). The flow signal was amplified by a four-channel amplifier (P/N 770 S/N 5; SENSElab, Somedic Sales, Hörby, Sweden), converted to digital signal, and recorded at 100 Hz by an online computer using DasyLab software (Datalog GmbH & Co. KG, Mönchengladbach, Germany). Respiratory frequency (fR, breaths/min), tidal volume (VT, μl/breath), and minute ventilation (VE, μl/min) were calculated. Chamber temperature was maintained at 30.1±0.1° C. in accordance with the documented thermoneutral range for neonatal mice by immersing the chamber in a thermostat-controlled water bath (49). As described previously, the chamber was calibrated by repeatedly injecting standardized volumes of air (5-200 μl) with preset precision syringes (Hamilton Bonaduz AG, Switzerland) (6). 95% of gas exchange occurred within 35 s of administration, which was verified by CO2 content analyses (Metek CD-3A and S-3A, PA, USA).
(§2) Respiration was examined using flow plethysmography in 9 d-old C57BL/6 mice (n=38) with variable expression of EP3R. After the administration of sevoflurane anesthesia for approximately 60 s, PGE2 (4 nmol in 2-4 μl aCSF) or vehicle was slowly injected into the lateral ventricle using a thin pulled glass pipette attached to polyeethylene tubing. The mouse was then placed immediately into the plethysmograph chamber. After a 10 min recovery period in normoxia, the mouse was exposed to hyperoxic and anoxic challenge as described above. Animal skin temperature was recorded at baseline and at each subsequent minute using a thermistor temperature probe.
(§3) Periods of calm respiration without movement artefact were selected for analysis. Mean fR, VT, and VE values during normoxia and hyperoxia as well as the anoxic response (i.e., hyperpnea, primary apnea, gasping, secondary apnea, and autoresuscitation) were analyzed as described previously (6, the disclosure of which is expressly incorporated herein by reference). Survival was recorded for all animals. Apnea was defined as cessation of breathing for three respiratory cycles. Regularity of breathing was quantified using the coefficient of variation (C.V.) (i.e., SD divided by mean of breath-by-breath interval during 60 periods).

[3] = system: brainstem spinal-cord preparations from EP3R^+/+ pups; experiment: En bloc brainstem-spinal cord preparation, respiratory activity, EP3R+/+; set-up: species or system mice; conditions: PGE2 20 μg/l, 2-3 d old EP3R+/+ pups, n=5, reversible
Experimental: (§4) Brainstem-spinal cord preparations were rapidly isolated from 2 d-old C57BL/6 mice with EP3R^+/+ and EP3R^−/− genotypes as described previously (n=11) (50, 51, both of which are expressly incorporated herein by reference). Respiratory-related activity corresponding to the inspiratory rhythm was monitored at the C4 ventral root through a glass suction electrode, recorded (5 kHz), and analyzed offline. Control recordings were performed for at least 20 min before perfusion with aCSF containing PGE2 followed by an aCSF washout period.
(§5) The brainstem was rostrally decerebrated between the cranial nerve VI roots and the lower border of the trapezoid body so that the pons was removed. The preparation was continuously perfused in a 1.5 ml chamber with artificial cerebrospinal fluid (aCSF): 130 mM NaCl, 3.3 mM KCl, 0.8 mM KH2PO4, 0.8 mM CaCl2, 1.0 mM MgCl2, 26 mM NaHCO3, and 30 mM D-glucose at 28° C. (flow rate, 3-4 ml/min). The solution was continuously equilibrated with 95% O2 and 5% CO2 to pH 7.4 (50, 51).

[4] = system: brainstem spinal-cord preparations from EP3R^−/− mice; experiment: En bloc brainstem-spinal cord preparation, respiratory activity, EP3R−/−; conditions: PGE2 20 μg/l, n=6
Experimental: as §4, §5

[5] = system: EP3R^−/− mice; experiment: Flow plethysmography after icv PGE2, EP3R−/− mice; assay type: in vivo
Experimental: as §1, §2, §3

[6] = Experimental: PGE2 and metabolites thereof may persist and may be measured even after more than 72 hours. Half time for PGE2 degradation various considerably pending on the cellular environment. Half-life of PGE2 can vary from a few minutes to several hours. When evaluating PGE2 produced in the body and secreted in urine or other body fluids it is important to also measure its metabolites.
[7] = 9 d-old EP3R+/+ mice, PGE2 icv, hyperoxia (100% O2)
[8] = 9 d-old EP3R+/+ mice, PGE2 icv, normoxia
[9] = 9 d-old EP3R−/− mice, PGE2 icv, hyperoxia (100% O2)
[10] = 9 d-old EP3R−/− mice, PGE2 icv, normoxia

SMILES: COc1ccc2c(c1)c(CC(=O)O)c(C)n2C(=O)c1ccc(Cl)cc1 [indomethacin]
- effect on respiratory depression induced by IL-1β [1]: attenuates the respiratory depression
- effect on adverse effects of IL-1β on hypoxic gasping and anoxic survival ([1]; neonatal rats): attenuates the adverse effects

SMILES: CCCCC[C@H](O)/C=C/[C@H]1[C@H](O)CC(=O)[C@@H]1C/C=C\CCCC(=O)O [PGE2, Prostaglandin E2]
- fR, normoxia ([2]; 9 d-old EP3R+/+ mice, PGE2 4 nmol icv, normoxia): 247 ± 13 breaths/min
- Hyperpnea fR ([2]; 9 d-old EP3R+/+ mice, PGE2 icv, anoxia (100% N2)): 267 ± 11 breaths/min
- VE, hyperoxia [2, 7]: 745 ± 102 µL/min/g
- VT, hyperoxia [2, 7]: 4.4 ± 1.1 μl/br/g
- fR, hyperoxia [2, 7]: 190 ± 16 breaths/min
- VE, normoxia [2, 8]: 901 ± 154 µL/min/g
- VT, normoxia [2, 8]: 3.7 ± 0.4 μl/br/g
- gasping response and anoxic survival ([2]; EP3R+/+ mice, PGE2 icv, compared to vehicle): did not alter the gasping response or anoxic survival
- apnea frequency and breathing pattern ([2]; EP3R+/+ mice, PGE2 icv, normoxia and hyperoxia, vs vehicle): induced a significantly greater apnea frequency and irregular breathing pattern
- respiratory rhythm generation, relative to control frequency (fR) [3]: 64±5 % of control frequency
- effect on respiratory activity [4]: did not affect respiratory activity
- fR, normoxia ([5]; 9 d-old EP3R−/− mice, PGE2 4 nmol icv, normoxia): 256 ± 10 breaths/min
- Hyperpnea fR ([5]; 9 d-old EP3R−/− mice, PGE2 icv, anoxia (100% N2)): 290 ± 9 breaths/min
- VE, hyperoxia [5, 9]: 1509 ± 299 µL/min/g
- VT, hyperoxia [5, 9]: 6.7 ± 1.3 μl/br/g
- fR, hyperoxia [5, 9]: 229 ± 9 breaths/min
- VE, normoxia [5, 10]: 1350 ± 129 µL/min/g
- VT, normoxia [5, 10]: 5.2 ± 0.5 μl/br/g
- gasping response and anoxic survival ([5]; EP3R−/− mice, PGE2 icv, compared to vehicle): did not alter the gasping response or anoxic survival
- induction of apneas ([5]; EP3R−/− mice, PGE2 icv, normoxia and hyperoxia, vs vehicle): not observed
- half-life of PGE2 [6]: 12 to 18 h
